Results reported in US7820803B2, “Immobilized phosphatidic acid probe” (priority 2000, dated 2010).
Values belong to the molecule of their own block, whether it stands above or below them.

Tests used:
[1] = target: T1, SR1 (Homo sapiens, UniProt Q8IWB7); test: Recombinant protein binding to derivatised beads: inhibition by free phosphoinositides (FIG. 11); conditions: all lipids at one concentration, relative affinity
T1 construct: Multiple overlapping clones allowed prediction of full-length human ORFs for each protein; EE (N); made in house; host or cells: Sf9 (baculovirus)
T1 sequence (Q8IWB7 1-410): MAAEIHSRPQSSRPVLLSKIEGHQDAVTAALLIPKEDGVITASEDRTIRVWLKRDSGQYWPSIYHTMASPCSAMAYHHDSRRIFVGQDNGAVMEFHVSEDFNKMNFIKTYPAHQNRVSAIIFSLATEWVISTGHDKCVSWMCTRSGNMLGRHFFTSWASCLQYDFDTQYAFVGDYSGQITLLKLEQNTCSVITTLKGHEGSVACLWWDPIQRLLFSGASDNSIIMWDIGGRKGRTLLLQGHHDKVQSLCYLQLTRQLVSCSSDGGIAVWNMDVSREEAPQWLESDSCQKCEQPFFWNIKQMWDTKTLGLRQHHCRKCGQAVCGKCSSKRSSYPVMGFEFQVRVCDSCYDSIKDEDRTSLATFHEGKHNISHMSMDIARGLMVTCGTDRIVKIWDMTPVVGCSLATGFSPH
Excerpt: (§1) FIG. 11. Protein binding to derivatised beads: inhibition by free phosphoinositides. Recombinant proteins (in Cos cell lysates or expressed and purified) were bound to PtdIns(3,4,5)P3 or PtdIns(3,4)P2 beads in the presence of various free phosphoinositides (for details, see Methods). For PIP3-E, a full length construct was expressed in Cos cells while a truncated version (residues 40-437) was purified from E.Coli. […] Unless otherwise indicated, the first lane was loaded with a sample equivalent to 1% (Cos cell lysates) or 10% (purified recombinant proteins) of the protein sample that was incubated with beads. As appropriate, tagged proteins were detected with antibodies (anti-myc, anti-GFP, anti-HIS, or anti-EE; see Methods) or by silver-staining (PIP3-G/H-EE, EE-myosin 1F, GST-cytohesin-4, DAPP1, PIP3-E, MEG-2 and CDC42-GAP). For each protein, the data shown are representative of information collected in 4 independent experiments. […]
(§2) Samples of the supernatants were diluted up to 4-fold in lysis buffer, depending on expression levels, and mixed with indicated concentrations of phosphoinositide in 1 ml (FIG. 11) for 10 min on ice. […] Proteins were eluted with SDS sample buffer, separated by SDS-PAGE and detected by immunoblotting [anti-myc (monoclonal 9E10) or anti-GFP (rabbit polyclonal): Clontech). […]

[2] = target: T2, SR3 (Homo sapiens, UniProt Q9HBF4); test: as above; conditions: all lipids at one concentration, relative affinity
T2 construct: Multiple overlapping clones allowed prediction of full-length human ORFs for each protein; EE (N); made in house; host or cells: Sf9 (baculovirus)
T2 sequence (Q9HBF4 1-777): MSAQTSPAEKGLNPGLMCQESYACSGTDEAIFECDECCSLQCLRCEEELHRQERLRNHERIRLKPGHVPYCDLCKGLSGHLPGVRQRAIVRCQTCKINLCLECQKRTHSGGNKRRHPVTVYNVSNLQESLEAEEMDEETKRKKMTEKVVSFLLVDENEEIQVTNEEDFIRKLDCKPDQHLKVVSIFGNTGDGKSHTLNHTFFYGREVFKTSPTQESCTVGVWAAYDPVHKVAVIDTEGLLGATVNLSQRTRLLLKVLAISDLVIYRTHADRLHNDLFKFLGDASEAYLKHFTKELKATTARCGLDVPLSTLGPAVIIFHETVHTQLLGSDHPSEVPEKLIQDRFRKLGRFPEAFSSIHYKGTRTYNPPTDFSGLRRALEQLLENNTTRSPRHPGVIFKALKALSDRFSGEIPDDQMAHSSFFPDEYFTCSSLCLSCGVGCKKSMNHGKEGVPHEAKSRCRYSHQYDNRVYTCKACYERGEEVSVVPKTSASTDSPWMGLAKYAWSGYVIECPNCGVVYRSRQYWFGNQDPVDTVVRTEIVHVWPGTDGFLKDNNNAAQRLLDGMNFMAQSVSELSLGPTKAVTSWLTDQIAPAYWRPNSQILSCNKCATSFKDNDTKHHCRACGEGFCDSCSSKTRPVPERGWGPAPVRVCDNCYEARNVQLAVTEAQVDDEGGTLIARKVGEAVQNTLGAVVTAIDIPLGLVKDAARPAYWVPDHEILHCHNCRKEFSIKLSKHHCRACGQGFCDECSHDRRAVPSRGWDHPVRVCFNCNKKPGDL
Excerpt: as §1, §2

[3] = target: T3, α-tocopherol-transfer protein (ATTP) (Homo sapiens, UniProt P49638); test: as above; conditions: all lipids at one concentration, relative affinity
T3 construct: His (N); made in house; host or cells: E. coli
T3 sequence (P49638 1-278): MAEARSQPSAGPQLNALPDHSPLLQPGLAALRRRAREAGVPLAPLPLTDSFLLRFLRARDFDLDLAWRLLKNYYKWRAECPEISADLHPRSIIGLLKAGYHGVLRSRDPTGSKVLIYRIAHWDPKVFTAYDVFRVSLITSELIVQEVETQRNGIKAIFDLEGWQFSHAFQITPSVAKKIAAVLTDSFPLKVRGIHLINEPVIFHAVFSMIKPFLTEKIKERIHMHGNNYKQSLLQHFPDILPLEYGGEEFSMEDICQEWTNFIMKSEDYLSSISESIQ
Excerpt: as §1, §2

[4] = Solubility of ω-amino phosphatidic acid in solvents; type: physicochemical; conditions: in a range of solvents; chloroform-methanol-water needed
Protocol: The immobilised PA [1] was prepared by coupling of the ω-amino phosphatidic acid (−), which was synthesised in 7 steps starting from the optically pure protected glycerol derivative (−), with the N-hydroxysuccinimide (NHS) activated ester agarose resin, Affi-Gel 10, as is depicted in Scheme 1. […] Excess resin (ca. 5 equiv. of NHS-groups) was used, resulting in a loading of 80% [2] onto the beads, as determined by the quantification of recovered by 1H-NMR in the presence of an internal standard.
Finally, the PA amine 33 and PtdIns(4,5)P2 amine 34 were coupled to the N-hydroxysuccinimide (NHS)-activated ester resin, Affi-Gel 10, to afford the corresponding affinity matrices 31 and 32. The PtdIns(4,5)P2 modified matrix was prepared in water using excess NaHCO3, by reacting the activated Affi Gel 10 [resin […] (4 mL)] with the amine 34 ([…]) to give a loading of 4.5 mmol as judged from the recovery of the amino phospholipid 34, that was quantified by 500 MHz ^1H-NMR spectroscopy in the presence of myo-inositol orthoformate 43 as the internal standard.

displacement of SR1 from PtdIns(3,4)P2 beads by free phosphoinositide [1]: most effectively | displacement of SR3 from PtdIns(3,4)P2 beads by free phosphoinositide [2]: most effectively
Structure (SMILES): CCCCCCCCCCCCCCCC(=O)OC[C@H](COP(=O)(O)O[C@@H]1[C@H](O)[C@H](OP(=O)(O)O)[C@@H](O)[C@H](O)[C@H]1O)OC(=O)CCCCCCCCCCCCCCC [PtdIns3P]

displacement of ATTP from PtdIns(3,4)P2 beads by free phosphoinositide [3]: displaced most effectively
Structure (SMILES): CCCCCCCCCCCCCCCC(=O)OC[C@H](COP(=O)(O)OC1[C@H](O)[C@H](O)C(OP(=O)(O)O)[C@H](O)[C@H]1O)OC(=O)CCCCCCCCCCCCCCC (some centres unmarked) [PtdIns4P]

displacement of ATTP from PtdIns(3,4)P2 beads by free phosphoinositide [3]: displaced most effectively
Structure (SMILES): CCCCCCCCCCCCCCCC(=O)OC[C@H](COP(=O)(O)O[C@H]1[C@H](O)[C@@H](OP(=O)(O)O)[C@H](O)[C@@H](O)[C@H]1O)OC(=O)CCCCCCCCCCCCCCC [PtdIns5P]

solubility [4]: poor solubility
Structure (SMILES): CCCCCCCCCCCCCCCC(=O)O[C@H](COC(=O)CCCCCCCCCCCN)COP(=O)(O)O [[2], 1-O-(12-Amino)dodecanoyl-2-O-hexadecanoyl-sn-glycer-3-ylphosphate]
